Measured values: ChEMBL document CHEMBL1128167, “(3R, 4S)-3-Benzyl-4-bromomethyloxetan-2-one, a fast acting alternate substrate inhibitor of -chymotrypsin” (Bioorg Med Chem Lett, 1995)

How the values were obtained:
Chymotrypsinogen B [1] = target: T1, Chymotrypsinogen B (Homo sapiens, UniProt P17538); experiment: (§1) Inhibition of Alpha-chymotrypsin was determined by competitive substrate assay method
Chymotrypsinogen B [2] = target: T1, Chymotrypsinogen B; experiment: as §1; remark: listed apart in the source

T1 sequence (P17538 34-164 limits assumed, other chains not shown): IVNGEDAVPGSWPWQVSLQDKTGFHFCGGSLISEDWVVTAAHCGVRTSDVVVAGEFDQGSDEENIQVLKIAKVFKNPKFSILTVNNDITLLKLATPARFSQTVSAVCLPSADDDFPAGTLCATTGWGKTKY
T1 sequence (P17538 167-263 limits assumed, other chains not shown): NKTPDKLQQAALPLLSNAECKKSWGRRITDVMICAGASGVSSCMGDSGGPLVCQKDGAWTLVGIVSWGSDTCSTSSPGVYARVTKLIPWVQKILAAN

Ka (Chymotrypsinogen B [1]): 2.94 min⁻¹ | Ki (Chymotrypsinogen B [2]): 2.55 µM
Structure (SMILES): O=C1O[C@H](CBr)[C@H]1Cc1ccccc1
